Test results taken from PMC8159961, “Exploring protein hotspots by optimized fragment pharmacophores” (Nature Communications, 2021).

Columns and labels:
human 5-HT6 receptor = target: T1, human 5-HT6 receptor (Homo sapiens, UniProt P50406); experiment: GPCR radioligand binding assay, [3H]-LSD displacement, HEK293 membranes; details: for 5-HT6 % Inhibition by plate position: 10 µM; for %inh 5-HT6 average: average of exp_1 and exp_2; for %inh 5-HT6 corrected*: average, values below 0 and above 100% were set as 0 and 100; for %inh 5-HT6 exp_1: replicate exp_1; for %inh 5-HT6 exp_2: replicate exp_2
T1 construct: expressed in transfected cells

human 5-HT1A receptor = target: T2, human 5-HT1A receptor (Homo sapiens, UniProt P08908); experiment: GPCR radioligand binding assay, [3H]-8-OH-DPAT displacement, HEK293 membranes; details: for 5-HT1A % Inhibition by plate position: 10 µM; for %inh 5-HT1A average: average of exp_1 and exp_2; for %inh 5-HT1A exp_1: replicate exp_1; for %inh 5-HT1A exp_2: replicate exp_2; for %inh 5-HT1A corrected*: average, values below 0 and above 100% were set as 0 and 100
T2 construct: expressed in transfected cells
T2 sequence (P08908 1-422): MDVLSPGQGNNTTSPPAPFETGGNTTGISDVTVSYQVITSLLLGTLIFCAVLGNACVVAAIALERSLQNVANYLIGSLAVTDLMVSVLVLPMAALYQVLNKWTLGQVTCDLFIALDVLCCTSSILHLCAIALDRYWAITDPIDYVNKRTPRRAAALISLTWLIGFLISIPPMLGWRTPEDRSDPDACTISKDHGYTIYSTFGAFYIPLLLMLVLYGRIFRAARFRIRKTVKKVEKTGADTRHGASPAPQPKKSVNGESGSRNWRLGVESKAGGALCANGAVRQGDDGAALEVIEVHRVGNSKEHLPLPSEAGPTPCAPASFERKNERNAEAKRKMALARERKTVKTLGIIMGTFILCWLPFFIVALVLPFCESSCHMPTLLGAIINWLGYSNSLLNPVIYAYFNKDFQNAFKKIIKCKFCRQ

human 5-HT7b receptor = target: T3, human 5-HT7b receptor (Homo sapiens, UniProt P34969); experiment: GPCR radioligand binding assay, [3H]-5-CT displacement, HEK293 membranes; details: for 5-HT7 % Inhibition by plate position: 10 µM; for %inh 5-HT7 exp_1: replicate exp_1; for %inh 5-HT7 exp_2: replicate exp_2; for %inh 5-HT7 average: average of exp_1 and exp_2
T3 construct: expressed in transfected cells
T3 sequence (P34969 1-432): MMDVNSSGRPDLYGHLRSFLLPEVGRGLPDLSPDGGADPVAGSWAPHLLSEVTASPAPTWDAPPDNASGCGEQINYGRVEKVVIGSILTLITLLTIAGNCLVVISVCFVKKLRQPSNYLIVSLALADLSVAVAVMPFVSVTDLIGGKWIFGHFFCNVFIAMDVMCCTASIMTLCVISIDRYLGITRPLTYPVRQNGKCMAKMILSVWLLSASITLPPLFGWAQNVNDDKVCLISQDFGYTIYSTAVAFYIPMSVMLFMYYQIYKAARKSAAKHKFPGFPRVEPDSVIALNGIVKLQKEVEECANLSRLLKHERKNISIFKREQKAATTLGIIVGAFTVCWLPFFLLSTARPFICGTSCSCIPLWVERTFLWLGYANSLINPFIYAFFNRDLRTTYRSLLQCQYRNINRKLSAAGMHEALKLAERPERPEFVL

T1 sequence (P50406 whole entry): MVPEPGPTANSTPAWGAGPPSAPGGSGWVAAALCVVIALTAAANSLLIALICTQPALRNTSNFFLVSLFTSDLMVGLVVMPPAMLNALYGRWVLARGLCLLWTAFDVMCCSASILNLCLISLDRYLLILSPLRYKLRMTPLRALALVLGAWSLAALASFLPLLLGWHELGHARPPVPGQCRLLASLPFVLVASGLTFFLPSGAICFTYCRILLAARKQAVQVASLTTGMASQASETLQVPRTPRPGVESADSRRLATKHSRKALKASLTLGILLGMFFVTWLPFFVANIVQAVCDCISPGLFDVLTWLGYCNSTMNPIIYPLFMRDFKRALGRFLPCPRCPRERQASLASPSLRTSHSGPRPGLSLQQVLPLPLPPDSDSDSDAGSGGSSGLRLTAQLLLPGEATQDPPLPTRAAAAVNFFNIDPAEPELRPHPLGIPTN

Structure (SMILES)	5-HT6 % Inhibition by plate position (human 5-HT6 receptor) [%]	%inh 5-HT6 average (human 5-HT6 receptor) [%]	%inh 5-HT6 corrected* (human 5-HT6 receptor) [%]	%inh 5-HT6 exp_1 (human 5-HT6 receptor) [%]	%inh 5-HT6 exp_2 (human 5-HT6 receptor) [%]	5-HT1A % Inhibition by plate position (human 5-HT1A receptor) [%]	%inh 5-HT1A average (human 5-HT1A receptor) [%]	%inh 5-HT1A exp_1 (human 5-HT1A receptor) [%]	%inh 5-HT1A exp_2 (human 5-HT1A receptor) [%]	5-HT7 % Inhibition by plate position (human 5-HT7b receptor) [%]	%inh 5-HT7 exp_1 (human 5-HT7b receptor) [%]	%inh 5-HT7 exp_2 (human 5-HT7b receptor) [%]	%inh 5-HT7 average (human 5-HT7b receptor) [%]	%inh 5-HT1A corrected* (human 5-HT1A receptor) [%]
O=C(O)CC1CCC(=O)N1 (stereo not drawn) [H2]	16	16	16	18	15	0	-0.447	-9	8.47	7	4.76	9		
FC1(F)CNCC(F)(F)O1 [H3]	36	36	36	40	31	0	-7	9	-23	0	-4	-10	-7	
O=C1NC(=O)C2(CCc3ccccc32)N1 (stereo not drawn) [B7]	32	32	32	32	31	0	-12	-22	-1.44	3.8	10	-2.31		
CCc1nccn1CC(=O)O [G11]	0	-2	0	-9	5		8.43	3.26	14	0	-14	8	-3.32	8.43
COc1ccc(C2=CCNCC2)cc1 [G1]	49	49	49	49	49		17	14	20	19	17	20		17
Oc1cnc(-c2ccccc2)nc1 [F11]	41	41	41	42	39		6.48	14	-1.43	0.572	-8	9		6.48
c1cnc2c(c1)NCCC2 [E7]	28	28	28	28	29		12	15	9	0	6	-14	-3.73	12
c1ccc2sc(N3CCNCC3)nc2c1 [G5]	42	42	42	49	35		83	78	88	28	32	25		83
Cn1c(CO)nc2ccccc21 [G2]	37	37	37	37	38	0	-5	12	-22	5	10	0.167		
O=C1CCN(c2ccccn2)CC1 [G8]	7	7	7	0	15	0	-7	4	-18	29	34	24		
NC1CCc2ccccc21 (stereo not drawn) [B4]	16	16	16	16	17		17	19	16	28	28	28		17
O=C(c1ccncc1)N1CCNCC1 [E2]	24	24	24	15	33		3.69	13	-6	3.34	1.81	5		3.69
Cc1cc(-c2ccccc2)n[nH]1 [A8]	48	48	48	44	52		9	9	9	34	37	32		9
O=C(O)c1ccc(CN2CCOCC2)cc1 [H1]	44	44	44	48	41		5	11	-0.56	17	11	23		5
